In patent US8765960B2, “6-((S)-1- {1-[5-(2-hydroxy-ethoxy)-pyridin-2-yl]-1H-pyrazol-3-YL}-ethyl)-3H-1,3-benzothiazol-2-one as a tarp-gamma 8 dependent AMPA receptor antagonist” (Eli Lilly and Company, priority 2012, dated 2014):

Legend:
[1] = biological target: T1, TARP γ8 dependent GluA1 flop receptors (Homo sapiens, UniProt P42261+Q8WXS5); assay: FLIPR antagonist functional assay, GluA1 flop co-expressed with TARP γ-8 in CHO-S cells; format: cell-based; conditions: glutamate 45 μM plus CTZ 20 μM, average±SEM, n=9
T1 construct: expressed in transfected cells; host or cells: CHO-S (Invitrogen), transient transfection
T1 sequence (P42261 19-906): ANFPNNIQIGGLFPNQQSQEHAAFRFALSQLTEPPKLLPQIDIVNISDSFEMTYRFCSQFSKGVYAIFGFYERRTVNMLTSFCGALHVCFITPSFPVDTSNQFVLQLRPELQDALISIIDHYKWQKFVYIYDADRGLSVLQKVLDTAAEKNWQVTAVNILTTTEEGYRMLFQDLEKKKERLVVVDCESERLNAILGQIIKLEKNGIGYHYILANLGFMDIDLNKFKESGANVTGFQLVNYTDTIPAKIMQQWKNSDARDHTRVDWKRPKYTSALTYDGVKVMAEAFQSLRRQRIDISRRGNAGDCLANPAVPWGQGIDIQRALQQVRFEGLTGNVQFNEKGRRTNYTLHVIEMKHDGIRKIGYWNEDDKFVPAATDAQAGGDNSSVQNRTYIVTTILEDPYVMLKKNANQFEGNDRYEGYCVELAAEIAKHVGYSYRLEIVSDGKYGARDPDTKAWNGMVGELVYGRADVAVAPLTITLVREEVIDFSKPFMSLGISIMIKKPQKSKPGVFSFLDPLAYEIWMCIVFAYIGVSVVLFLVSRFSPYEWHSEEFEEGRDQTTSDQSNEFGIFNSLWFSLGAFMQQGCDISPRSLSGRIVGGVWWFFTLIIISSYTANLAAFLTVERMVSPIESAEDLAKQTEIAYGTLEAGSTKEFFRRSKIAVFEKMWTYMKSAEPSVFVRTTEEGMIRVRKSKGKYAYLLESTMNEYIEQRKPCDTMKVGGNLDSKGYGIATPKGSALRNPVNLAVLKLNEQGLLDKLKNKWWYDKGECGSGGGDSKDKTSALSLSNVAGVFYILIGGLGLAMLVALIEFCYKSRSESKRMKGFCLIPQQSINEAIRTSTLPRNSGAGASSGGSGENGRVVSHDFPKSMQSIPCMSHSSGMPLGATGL
T1 sequence (Q8WXS5 whole entry): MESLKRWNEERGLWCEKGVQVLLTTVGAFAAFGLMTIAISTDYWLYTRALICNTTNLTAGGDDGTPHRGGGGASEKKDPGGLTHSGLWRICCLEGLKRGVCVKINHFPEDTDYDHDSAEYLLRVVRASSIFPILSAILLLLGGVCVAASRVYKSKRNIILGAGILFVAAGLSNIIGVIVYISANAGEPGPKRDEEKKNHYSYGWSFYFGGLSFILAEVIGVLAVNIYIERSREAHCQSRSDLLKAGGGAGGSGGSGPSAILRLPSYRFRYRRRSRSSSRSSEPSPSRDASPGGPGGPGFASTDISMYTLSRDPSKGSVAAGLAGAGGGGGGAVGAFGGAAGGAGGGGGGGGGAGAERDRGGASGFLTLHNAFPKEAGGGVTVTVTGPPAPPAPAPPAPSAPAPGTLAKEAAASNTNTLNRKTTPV
Description: (§1) FLIPR Antagonist Functional Assay
(§2) Briefly, CHO-S (Invitrogen) cells are grown in suspension in 50/50 custom media to a density of 1×10^7 cells/ml. […]

[2] = biological target: T2, AMPA GluA1 flip isoform devoid of TARP (Homo sapiens, UniProt P42261); assay: FLIPR antagonist functional assay, GluA1 flip expressed in CHO-S cells without TARP; format: cell-based; conditions: no TARP, did not inhibit, assay limit 9260 nM
T2 construct: expressed in transfected cells; host or cells: CHO-S (Invitrogen), transient transfection
T2 sequence (P42261 19-906 isoform P42261-2 limits assumed): as the sequence (P42261 19-906) above, with N740G, N750S, L754V, N760S, G772K, G773D, G774S, D775G counted along it
Description: as §1, §2

[3] = biological target: T3, TARP γ2 dependent GluA1 flop receptors (Homo sapiens, UniProt P42261+Q9Y698); assay: FLIPR antagonist functional assay, GluA1 flop co-expressed with TARP γ-2 in CHO-S cells; format: cell-based; conditions: did not inhibit, assay limit 9260 nM
T3 construct: expressed in transfected cells; host or cells: CHO-S (Invitrogen), transient transfection
T3 sequence (P42261 19-906): as the sequence (P42261 19-906) above
T3 sequence (Q9Y698 whole entry): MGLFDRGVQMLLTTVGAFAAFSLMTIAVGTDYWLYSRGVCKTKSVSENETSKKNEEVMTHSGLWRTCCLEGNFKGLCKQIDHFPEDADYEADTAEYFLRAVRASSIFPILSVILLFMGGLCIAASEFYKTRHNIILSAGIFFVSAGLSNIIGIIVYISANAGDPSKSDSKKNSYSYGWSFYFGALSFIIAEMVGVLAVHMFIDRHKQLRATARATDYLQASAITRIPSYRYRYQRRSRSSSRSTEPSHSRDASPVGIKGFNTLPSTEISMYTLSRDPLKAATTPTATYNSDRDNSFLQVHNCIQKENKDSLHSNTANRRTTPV
Description: as §1, §2

motor impairment = assay: Inverted screen test for motor impairment (within rat PTZ model); format: in vivo; conditions: rats, 1-10 mg/Kg p.o., 25 min after dosing
Description: Animals are removed and dosed with test compound or vehicle (5% DMSO, 10% acacia and 0.05% Dow Corning® 1510-US antifoam), p.o., 10 mL/Kg, and returned to their home cage. Twenty five min. after dosing, animals are placed onto a screen and the screen is inverted 180 degrees to test for motor impairment. The animals are scored 60 sec. after inversion as follows: 0 if the animal climbs over the screen; 1 if the animal is hanging onto the bottom of the screen; 2 if the animal has fallen off the screen. After completing the screen test, animals are dosed S.C. with 35 mg/kg PTZ in saline in a volume of 1 ml/kg. The animals are then placed in an observation cage and observed for 30 min. post PTZ. […] Tonic seizure is defined as loss of righting with tonic hindlimb extension. Lethality during the observation period is also recorded. Animals are scored according to the presence of a specific seizure type at any time during the observation period.

PTZ induced seizures = assay: Rat pentylenetetrazole (PTZ)-induced seizure model; format: in vivo
Description: Rat Pentylenetetrazole (PTZ)-Induced Seizure Model:
Male Sprague Dawley rats (from Harlan Sprague Dawley. Indianapolis, Ind.), weighing 90-110 grams at time of test, are housed 5 per cage with ad libitum food and water in a large colony room with a standard light cycle (lights on 6 am, lights off 6 pm). Animals are maintained in the colony room for at least 3 days before testing Animals are moved to a quiet room 1 hr. prior to the start of the test. Animals are used only once.
Animals are removed and dosed with test compound or vehicle (5% DMSO, 10% acacia and 0.05% Dow Corning® 1510-US antifoam), p.o., 10 mL/Kg, and returned to their home cage. Twenty five min. after dosing, animals are placed onto a screen and the screen is inverted 180 degrees to test for motor impairment. The animals are scored 60 sec. after inversion as follows: 0 if the animal climbs over the screen; 1 if the animal is hanging onto the bottom of the screen; 2 if the animal has fallen off the screen. After completing the screen test, animals are dosed S.C. with 35 mg/kg PTZ in saline in a volume of 1 ml/kg. The animals are then placed in an observation cage and observed for 30 min. post PTZ. […] Lethality during the observation period is also recorded. Animals are scored according to the presence of a specific seizure type at any time during the observation period.

formalin induced pain = assay: Manual formalin induced pain model; format: in vivo, mice; conditions: for % reduction in total time licking: mice
Description: Manual Formalin Induced Pain Model
The manual formalin induced pain model is well known for screening compounds for analgesic properties (Mogil J. S. et al., Heritability of nociception I: Responses of 11 inbred mouse strains on 12 measures of nociception. Pain 80 (1999) 67-82). The assay is performed in Plexiglas® boxes approx. 10 cm×10 cm×10 cm in size. A minor placed at the back of the cage allows the unhindered observation of the formalin injected paw. Non-fasted male mice (Harlan (HSD) CD1-Icr) are placed individually in the cubicles at least 60 min. prior to the experiment. All testing is conducted between 08:00 and 16:00 hr. and the testing room temperature is maintained at 21-23° C. Multiple doses of test compound (3, 10 and 30 mg/kg), vehicle (5% DMSO in 10% Acacia, 0.05% antifoam), and a positive control (tramadol 80 mg/kg in 1% HEC, 0.25% Tween 80, 0.05% antifoam) are peripherally administered (p.o.) at varying times before the formalin challenge. Formalin (20 μL of a 5% solution in 0.9% saline) is injected subcutaneously into the plantar surface of the left hind paw with a 27 gauge needle. Observation starts immediately after the formalin injection. Formalin induced pain is quantified by recording the number of seconds each licking event lasts in 5 min. intervals. The pain scoring is measured for 60 min. after the formalin injection. Two phases of pain behavior are observed as previously described (Wheeler-Aceto, H., Porreca, F. and Cowan, A., The rat paw formalin test: comparison of noxious agents, Pain 40 (1990) 229-238.). The early phase starts immediately after the formalin injection and lasts approximately 5 min., followed by the late phase that starts between minutes 10-15 with a maximum response typically observed around 25-40 min after the formalin injection. After the 60 min observation period, animals are sacrificed with CO2 followed by cervical dislocation. Of the different scoring parameters reported for the formalin test, the total time spent licking and biting the injected paw is considered to be most relevant. (Abbott et al., The formalin test: scoring properties of the first and second phases of the pain response in rats, Pain 60 (1995) 91-102; Coderre et al., The formalin test: a validation of the weighted-scores method of the behavioral pain rating, Pain 54 (1993) 43-50).) The early phase score is the sum of time spent licking (seconds) from time 0 to 5 min. The late phase score is obtained by adding the total number of seconds spent licking from minute 15 to min. 55 of the observation period. Data are presented as means with standard errors of means (±SEM). Data are evaluated by one-way analysis of variance (ANOVA) and the appropriate contrasts analyzed by Dunnett “t” test for two sided comparisons. […]

## C[C@@H](c1ccc2[nH]c(=O)sc2c1)c1ccn(-c2ccc(OCCO)cn2)n1 (single isomer, unassigned) [Example 2]
[1]
  IC50: 0.0745 ± 0.0178 µM
  inhibition of glutamate plus CTZ activation: about 85.6±0.7%
[2]
  IC50: > 9.26 µM
[3]
  IC50: > 9.26 µM
Motor impairment
  motor impairment as measured by the inverted screen test: without any observed motor impairment
PTZ induced seizures; Rattus norvegicus, male Sprague Dawley rats, p.o., dose range 1-10 mg/Kg, PTZ 35 mg/kg S.C., read-out: estimated ED50, protection against PTZ induced seizures
  ED50: 1.74 mg/kg
PTZ induced seizures; rats, 10 mg/Kg p.o.
  protection against PTZ induced seizures: 100%
Formalin induced pain; Mus musculus, po, male CD1 mice, p.o., derived from dose responses at 3, 10, 30 mg/kg, read-out: ED50, reduction of pain behavior
  ED50: 2.61 mg/kg
Formalin induced pain; 3 mg/kg p.o.
  % reduction in total time licking: 53.9%
Formalin induced pain; 10 mg/kg p.o.
  % reduction in total time licking: 80.4%
Formalin induced pain; 30 mg/kg p.o.
  % reduction in total time licking: 90.0%
